Values joined by “and” are separate entries in the source; they are usually repeats but may differ in a detail not shown here. Equal values may be shown once.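 Results reflect a 48-hour exposure of cells in 96-well plates to compound at five concentrations. GI50 marks 50% less growth. TGI denotes the concentration required for complete inhibition of growth.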
Tests used:
Test in all cases: NCI tumour cell line growth inhibition, 48 h
[1] = test system: 786-0 renal
[2] = test system: A498 renal
[3] = test system: A549 NSCLC
[4] = test system: ACHN renal
[5] = test system: BT-549 breast
[6] = test system: CAKI-1 renal
[7] = test system: CCRF-CEM leukemia
[8] = test system: COLO 205 colon
[9] = test system: DLD-1 colon
[10] = test system: DMS 114 small cell lung
[11] = test system: DU-145 prostate
[12] = test system: EKVX NSCLC
[13] = test system: HCC-2998 colon
[14] = test system: HCT-116 colon
[15] = test system: HCT-15 colon
[16] = test system: HL-60(TB) leukemia
[17] = test system: HOP-18 NSCLC
[18] = test system: HOP-62 NSCLC
[19] = test system: HOP-92 NSCLC
[20] = test system: HS 578T breast
[21] = test system: HT29 colon
[22] = test system: IGROV1 ovarian
[23] = test system: KM12 colon
[24] = test system: KM20L2 colon
[25] = test system: LOX IMVI melanoma
[26] = test system: LXFL 529 NSCLC
[27] = test system: M14 melanoma
[28] = test system: M19-MEL melanoma
[29] = test system: MALME-3M melanoma
[30] = test system: MCF7 breast
[31] = test system: MDA-MB-231 breast
[32] = test system: MDA-MB-435
[33] = test system: MDA-N
[34] = test system: MOLT-4 leukemia
[35] = test system: NCI-H226 lung
[36] = test system: NCI-H23 lung
[37] = test system: NCI-H460 lung
[38] = test system: NCI-H522 lung
[39] = test system: NCI/ADR-RES ovarian
[40] = test system: OVCAR-3 ovarian
[41] = test system: OVCAR-4 ovarian
[42] = test system: OVCAR-5 ovarian
[43] = test system: OVCAR-8 ovarian
[44] = test system: PC-3 prostate
[45] = test system: RPMI-8226 leukemia
[46] = test system: RXF 393 renal
[47] = test system: SF-268 CNS
[48] = test system: SF-295 CNS
[49] = test system: SF-539 CNS
[50] = test system: SK-MEL-2 melanoma
[51] = test system: SK-MEL-28 melanoma
[52] = test system: SK-MEL-5 melanoma
[53] = test system: SK-OV-3 ovarian
[54] = test system: SN12C renal
[55] = test system: SNB-19 CNS
[56] = test system: SNB-75 CNS
[57] = test system: SNB-78 CNS
[58] = test system: SR leukemia
[59] = test system: SW-620 colon
[60] = test system: T-47D breast
[61] = test system: TK-10 renal
[62] = test system: U251 CNS
[63] = test system: UACC-257 melanoma
[64] = test system: UACC-62 melanoma
[65] = test system: UO-31 renal
[66] = test system: DMS 273 small cell lung
[67] = test system: K-562 leukemia

## COc1cc2c3cc1Oc1c(OC)c(OC)cc4c1C(Cc1ccc(cc1)Oc1cc(ccc1O)CC3N(C)CC2)N(C)CC4 (centres undefined)
[1]
  GI50: > 100 µM and 10.2 µM
  TGI: > 100 µM and 38.5 µM
[2]
  TGI: 32.9 µM
[3]
  TGI: 39.6 µM and 25.2 µM
[4]
  GI50: 14.5 µM and 4.72 µM
  TGI: 46.1 µM and 15.8 µM
[5]
  TGI: 22.8 µM
[6]
  TGI: 42.9 µM and 31.4 µM
[7]
  GI50: 6.96 µM and 2.78 µM
  TGI: 58.3 µM and 24.7 µM
[8]
  GI50: 11 µM and 1.52 µM
  TGI: 23 µM and 11.3 µM
[9]
  TGI: 54.9 µM
[10]
  TGI: 24.8 µM
[11]
  TGI: 24.8 µM
[12]
  TGI: > 100 µM and 33.3 µM
[13]
  GI50: 11.7 µM and 2.71 µM
  TGI: 25 µM and 11.7 µM
[14]
  TGI: 21 µM and > 100 µM
[15]
  GI50: 8.8 µM and 3.19 µM
  TGI: 23.2 µM and 14.3 µM
[16]
  GI50: 5.61 µM and 1.88 µM
  TGI: 30.5 µM and 7.29 µM
[17]
  TGI: > 100 µM
[18]
  TGI: 34.7 µM
[19]
  TGI: 38.7 µM and 41.3 µM
[20]
  TGI: 31.4 µM
[21]
  TGI: 20.9 µM and 14.1 µM
[22]
  TGI: 43.8 µM and 29.4 µM
[23]
  TGI: 24.8 µM and 26.2 µM
[24]
  TGI: 24.7 µM
[25]
  GI50: 6.39 µM and 2.56 µM
  TGI: 19.1 µM
[26]
  TGI: 27.8 µM
[27]
  TGI: 4.27 µM and 4.79 µM
[28]
  TGI: 24.2 µM
[29]
  TGI: 27 µM and 26 µM
[30]
  TGI: 20.8 µM
[31]
  TGI: 24.5 µM
[32]
  TGI: 31.9 µM
[33]
  TGI: 17 µM
[34]
  TGI: 30.8 µM and 36.8 µM
[35]
  TGI: 40.6 µM and 37.5 µM
[36]
  TGI: 48.1 µM and 26.3 µM
[37]
  GI50: 14.5 µM and 4.72 µM
  TGI: 32.6 µM and 17.3 µM
[38]
  GI50: 1.57 µM and 4.86 µM
  TGI: 14.2 µM and 20.5 µM
[39]
  TGI: 60.5 µM
[40]
  TGI: 29.1 µM and 62.8 µM
[41]
  TGI: 29.6 µM and 31.3 µM
[42]
  TGI: 67.4 µM and 29.6 µM
[43]
  TGI: > 100 µM and 34.8 µM
[44]
  TGI: 28.4 µM
[45]
  TGI: 32.1 µM
[46]
  TGI: 5.69 µM and 4.03 µM
[47]
  TGI: 44.6 µM and 24.7 µM
[48]
  GI50: 15.4 µM and 7.68 µM
  TGI: 28.9 µM and 21.4 µM
[49]
  GI50: 11.4 µM and 1.56 µM
  TGI: 23.6 µM and 3.81 µM
[50]
  TGI: 27 µM and 24.8 µM
[51]
  GI50: 12.9 µM and 5.81 µM
  TGI: 25.9 µM and 26 µM
[52]
  GI50: 6.2 µM and 1.81 µM
  TGI: 18.7 µM and 3.72 µM
[53]
  TGI: 69.6 µM and 86.2 µM
[54]
  TGI: 61.3 µM and 30.6 µM
[55]
  GI50: 28.6 µM and 12 µM
  TGI: 72.7 µM and 24.7 µM
[56]
  TGI: 25.3 µM and 23.8 µM
[57]
  TGI: 64.6 µM
[58]
  TGI: 8.98 µM and 7.5 µM
[59]
  TGI: 22.6 µM and 45.8 µM
[60]
  TGI: 26.8 µM
[61]
  TGI: 45 µM and 25.9 µM
[62]
  TGI: 23.8 µM and 30.5 µM
[63]
  GI50: 13.3 µM and 1.96 µM
  TGI: 26.7 µM and 4.29 µM
[64]
  TGI: 28.5 µM and 21.7 µM
[65]
  TGI: 21.5 µM and 20.6 µM

## Cc1ccccc1NC(=O)CSc1nnc(Cc2ccccc2)o1
[1]
  TGI: > 100 µM
[3]
  TGI: > 100 µM
[4]
  TGI: > 100 µM
[7]
  TGI: > 100 µM
[8]
  TGI: > 100 µM
[9]
  TGI: > 100 µM
[10]
  TGI: > 100 µM
[66]
  TGI: > 100 µM
[13]
  TGI: > 100 µM
[14]
  TGI: > 100 µM
[15]
  TGI: > 100 µM
[17]
  TGI: > 100 µM
[18]
  TGI: > 100 µM
[21]
  TGI: > 100 µM
[22]
  TGI: > 100 µM
[67]
  TGI: > 100 µM
[23]
  TGI: > 100 µM
[24]
  TGI: > 100 µM
[25]
  TGI: > 100 µM
[26]
  TGI: > 100 µM
[27]
  TGI: > 100 µM
[28]
  TGI: > 100 µM
[29]
  TGI: > 100 µM
[34]
  TGI: > 100 µM
[35]
  TGI: > 100 µM
[36]
  TGI: > 100 µM
[37]
  TGI: > 100 µM
[38]
  TGI: > 100 µM
[40]
  TGI: > 100 µM
[41]
  TGI: > 100 µM
[42]
  TGI: > 100 µM
[43]
  TGI: > 100 µM
[45]
  TGI: > 100 µM
[46]
  TGI: > 100 µM
[47]
  TGI: > 100 µM
[48]
  TGI: > 100 µM
[49]
  TGI: > 100 µM
[50]
  TGI: > 100 µM
[51]
  TGI: > 100 µM
[52]
  TGI: > 100 µM
[53]
  TGI: > 100 µM
[54]
  TGI: > 100 µM
[56]
  TGI: > 100 µM
[57]
  TGI: > 100 µM
[61]
  TGI: > 100 µM
[62]
  TGI: > 100 µM
[63]
  TGI: > 100 µM
[64]
  TGI: > 100 µM
[65]
  TGI: > 100 µM

## CC(=O)C1=NN(c2ccccc2)C2(S1)SC(c1ccccc1)(c1ccccc1)c1ccccc12 (centres undefined)
[1]
  TGI: > 100 µM
[2]
  TGI: > 100 µM
[3]
  TGI: > 100 µM
[4]
  TGI: > 100 µM
[7]
  TGI: > 100 µM
[8]
  TGI: > 100 µM
[9]
  TGI: > 100 µM
[10]
  TGI: > 100 µM
[66]
  TGI: 73.6 µM
[12]
  TGI: > 100 µM
[13]
  TGI: > 100 µM
[14]
  TGI: > 100 µM
[15]
  TGI: > 100 µM
[16]
  TGI: > 100 µM
[17]
  TGI: > 100 µM
[18]
  TGI: > 100 µM
[19]
  TGI: 46.1 µM
[21]
  TGI: > 100 µM
[22]
  TGI: > 100 µM
[67]
  TGI: > 100 µM
[23]
  TGI: > 100 µM
[24]
  TGI: > 100 µM
[25]
  TGI: > 100 µM
[26]
  TGI: > 100 µM
[27]
  TGI: > 100 µM
[28]
  TGI: > 100 µM
[29]
  TGI: > 100 µM
[34]
  TGI: > 100 µM
[35]
  TGI: > 100 µM
[36]
  TGI: > 100 µM
[37]
  TGI: > 100 µM
[38]
  TGI: 80.1 µM
[40]
  TGI: > 100 µM
[41]
  TGI: 79.6 µM
[43]
  TGI: > 100 µM
[45]
  TGI: > 100 µM
[46]
  TGI: 65.7 µM
[47]
  TGI: > 100 µM
[48]
  TGI: > 100 µM
[49]
  TGI: > 100 µM
[50]
  TGI: 78.7 µM
[51]
  TGI: > 100 µM
[53]
  TGI: > 100 µM
[54]
  TGI: > 100 µM
[55]
  TGI: > 100 µM
[56]
  TGI: 71.1 µM
[57]
  TGI: > 100 µM
[58]
  TGI: > 100 µM
[59]
  TGI: > 100 µM
[61]
  TGI: > 100 µM
[62]
  TGI: > 100 µM
[63]
  TGI: > 100 µM
[64]
  TGI: 48.7 µM
[65]
  TGI: > 100 µM

— PubChem BioAssay (NCI)
